Measured values: US20190359653A1, “SELECTIVE PEPTIDE INHIBITORS OF FRIZZLED” (Genentech, Inc., priority 2016, published 2019)
Where two headings read alike, the source gives them in different places.

Key:
[1] = tested on: Wnt3a-mediated β-catenin signaling in HEK293-TB cells; type: cell-based; details: for HEK293S-TB % Remaining Activity: measured at 100 μM peptide; for IC50 compared with dFz7-21: text to Table 17
[2] = tested on: Wnt3a-mediated stabilization of β-catenin in mouse L cells; test: in-cell western of β-catenin protein in L cells treated with Wnt3a; type: cell-based
Protocol: DMSO controls were performed in parallel. Following treatment, the L-cells were fixed, permeabilized, probed with fluorescently labeled anti-β-catenin antibodies, and observed via in-cell western assay (i.e., as described in Hannoush, R. N. (2008) PLoS One 3, e3498) to assess β-catenin protein levels. The values in Table 7 are averages of at least 3 independent replicates, ±standard deviation.

Herceptin = test: spot phage ELISA against Herceptin (off-target); type: binding; details: for SIGNAL: NOISE RATIO HERCEPTIN: spot phage ELISA signal against Herceptin over ELISA signal against BSA, Tables 3 and 4; for HERCEPTIN S/W: signal minus noise (BSA); for HERCEPTIN S/W / HERCEPTIN S/N: Table 5; for HERCEPTIN S/N: signal to noise ratio
Protocol: (§1) Phage pools of linear peptide libraries (Stanger, K. et al. Allosteric peptides bind a caspase zymogen and mediate caspase tetramerization. Nat Chem Biol 8, 655-660 (2012)) were cycled through rounds of binding selections with hFZD7 CRD-Fc following standard protocols (Tonikian et al. (2007) Nat Protoc 2, 1368-1386). Herceptin (10 μM) was included in sorting solution to block potential Fc binders during all rounds of sorting. After four rounds of binding selection, individual phage clones were analyzed in a high-throughput spot phage ELISA using plate-immobilized FZD7 CRD-Fc as target or off-target for specificity test (hFZD8 CRD-Fc and Herceptin). To measure off-target affinity, duplicate phage particle were assayed against BSA to measure non-specific binding. Clones with a phage-binding signal >0.5 and signal-to-noise ratio >10 were considered to be positive clones and were subjected to DNA sequence analysis. General data handling was done using Microsoft Excel 2010 unless otherwise noted.
(§2) In order to investigate the role of FZD7 in intestinal stem cell function, experiments were performed to identify ligands that selectively bind FZD7 CRD. A naïve linear peptide library (4-16 amino acids in length) and a cyclic peptide library were screened via phage display against FZD7 CRD-Fc. Peptides found to bind FZD7 CRD-Fc were then screened via spot phage ELISA against FZD7 CRD-Fc, FZD8 CRD-Fc, and Herceptin to identify candidates that bind FZD7 CRD but not FZD8 CRD or herceptin. The amino acid sequences of candidate FZD7 CRD-binding linear peptides are shown in Table 3 below, and the amino acid sequences of candidate FZD7 CRD-binding cyclic peptides are shown in Table 4.
(§3) Briefly, sixty Fz7-21-derived peptides (see Table 5), each containing at least one random alanine and/or valine/and/or aspartic acid and/or serine substitution, were generated and screened via spot phage ELISA (i.e., as described above) against FZD7 CRD-Fc and Herceptin.

FZD7 CRD-Fc = biological target: T1, FZD7 CRD-Fc (Homo sapiens, UniProt O75084); test: spot phage ELISA against FZD7 CRD-Fc; type: binding; details: for FZD7 CRD-Fc phage-binding signal: signal minus noise (BSA); for FZD7 CRD-Fc phage-binding signal / FZD7 CRD-Fc S/N: shotgun scanning variants of Fz7-21, Table 5; for FZD7 CRD-Fc S/N: signal to noise ratio; for SIGNAL: NOISE RATIO FZD7 CRD: spot phage ELISA signal against FZD7 CRD over ELISA signal against BSA, Tables 3 and 4
T1 construct: hFZD7 CRD-Fc (cat no. 6178-FZ); purchased R&D systems 6178-FZ
Protocol: as §1, §2, §3

FZD8 CRD-Fc = biological target: T2, FZD8 CRD-Fc (Homo sapiens, UniProt Q9H461); test: spot phage ELISA against FZD8 CRD-Fc (off-target); type: binding; details: spot phage ELISA signal against FZD 8 CRD over ELISA signal against BSA; Tables 3 and 4
T2 construct: hFZD8 CRD-Fc (cat no. 6129-FZ); purchased R&D systems 6129-FZ
T2 sequence (Q9H461 30-151 limits assumed): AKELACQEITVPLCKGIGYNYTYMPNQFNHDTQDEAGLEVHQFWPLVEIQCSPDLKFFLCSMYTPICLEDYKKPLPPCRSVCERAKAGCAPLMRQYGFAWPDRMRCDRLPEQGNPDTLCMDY
Protocol: as §1, §2

[3] = tested on: Rnf43^−/− and Znf3^−/− intestinal neoplasia in mice; details: Koo et al. (2015); cited from earlier work
[4] = β-catenin by immunofluorescence, Wnt3a 2.5 nM, 5 hours, mean ± standard deviation
[5] = […], mWnt3a 50 ng/mL, 6 hours, mean ± standard deviation, read-out: HEK293S-TB IC50

Row | Compound | SIGNAL: NOISE RATIO HERCEPTIN (Herceptin) | HERCEPTIN S/W (Herceptin) | HERCEPTIN S/N (Herceptin) | further results
1 | LPSDNLEFWCHVMY [Fz7-21N] | – | – | – | HEK293S-TB % Remaining Activity ([1]; mean ± standard deviation): 5.51 ± 0.13%; IC50 ([1]; read-out: IC50, Wnt3a-stimulated β-catenin signaling): 0.1 µM; L CELLS % Remaining Activity ([2]; measured at 11.11 μM of peptide): 59.77^G ± 6.12%; Wnt3a-mediated stabilization of β-catenin ([2]; mouse L cells): blocked; IC50 [2, 4]: 0.18 ± 0.12 µM
2 | ISLIEAMIALDRVF [Fz7-06] | 1.1 | – | – | IC50 [1, 5]: 10.5 ± 0.56 µM; HEK293S-TB % Remaining Activity ([1]; mean ± standard deviation): 4.70 ± 2.07%; L CELLS % Remaining Activity ([2]; measured at 100 μM peptide): 174.95%; L CELLS IC50 (μM) [2, 4]: n. i.
3 | 41 (AASDDLEFWCHVMY) [compound 41] | – | 0.0 | 1.3 | FZD7 CRD-Fc phage-binding signal (FZD7 CRD-Fc): 3.0; FZD7 CRD-Fc S/N (FZD7 CRD-Fc): 59.6
4 | 5 (PCSVICLPDWSSLLFI) [compound 5] | 1.0 | – | – | SIGNAL: NOISE RATIO FZD7 CRD (FZD7 CRD-Fc): 22.7; SIGNAL: NOISE RATIO FZD8 CRD (FZD8 CRD-Fc): 1.5
5 | FDFCSVMPQFIYCPGD [Fz7-20] | 1.14 | – | – | IC50 [1, 5]: 20.8 ± 1.61 µM; HEK293S-TB % Remaining Activity ([1]; mean ± standard deviation): 9.78 ± 0.53%; L CELLS % Remaining Activity ([2]; measured at 100 μM peptide): 23.68 ± 4.40%; IC50 [2, 4]: 15.2 ± 10.8 µM
6 | SDDLEFWCHVMY [dFz7-21-Δ2] | – | – | – | effect of N-terminal truncation on dFz7-21 activity ([1]; lacking the 2 N-terminal residues): did not interfere; IC50 compared with dFz7-21 [1]: comparable to that of dFz7-21
7 | 94 (LPADDLEFWCHVMY) [compound 94] | – | 0.0 | 1.2 | FZD7 CRD-Fc phage-binding signal (FZD7 CRD-Fc): 0.1; FZD7 CRD-Fc S/N (FZD7 CRD-Fc): 2.8
8 | YEHLHDLMDLIRPW [Fz7-07] | 1.2 | – | – | IC50 [1, 5]: > 100 µM; HEK293S-TB % Remaining Activity ([1]; mean ± standard deviation): 46.04 ± 6.94%; L CELLS % Remaining Activity ([2]; measured at 100 μM peptide): 67.20 ± 10.22%; IC50 [2, 4]: > 100 µM
9 | 16 (PCSVICLPDWSSLLFI) [compound 16] | 1.1 | – | – | SIGNAL: NOISE RATIO FZD7 CRD (FZD7 CRD-Fc): 5.0; SIGNAL: NOISE RATIO FZD8 CRD (FZD8 CRD-Fc): 1.1
10 | 52 (LPADDLAVWCDVMY) [compound 52] | – | 0.0 | 1.5 | –
11 | IWFKGRFVEFSSLV [Fz7-17] | 1.1 | – | – | IC50 [1, 5]: 34.77 ± 0.34 µM; HEK293S-TB % Remaining Activity ([1]; mean ± standard deviation): 4.59 ± 1.30%; L CELLS % Remaining Activity ([2]; measured at 100 μM peptide): 38.20 ± 0.06%; IC50 [2, 4]: ~35 µM
12 | 81 (LASDDLEFWCHVMY) [compound 81] | – | 0.0 | 1.2 | –
13 | 56 (APSDDLAAWCHVVY) [compound 56] | – | 0.0 | 1.2 | –
14 | 70 (AASDDLEAWCHVMY) [compound 70] | – | 0.0 | 1.4 | –
15 | 31 (FWFDFWFG) [compound 31] | 4.1 | – | – | –
16 | 77 (AASDDLAFWCHVMY) [compound 77] | – | 0.0 | 1.1 | –
17 | 15 (FWMQLQDGFAIWFP) [compound 15] | 1.7 | – | – | SIGNAL: NOISE RATIO FZD8 CRD (FZD8 CRD-Fc): 2.9
18 | 14 (DTDLLQWCLWFT) [compound 14] | 1.2 | – | – | –
19 | 91 (APSDDLAFWCDVMY) [compound 91] | – | 0.0 | 0.7 | –
20 | 73 (APSDDLAAWCHVMY) [compound 73] | – | 0.0 | 1.3 | –

Row | Compound | SIGNAL: NOISE RATIO HERCEPTIN (Herceptin) | HERCEPTIN S/W (Herceptin) | HERCEPTIN S/N (Herceptin) | further results
21 | 85 (PPADDLAFWCDVMY) [compound 85] | – | 0.0 | 1.1 | –
22 | 26 (FCENPYIICW) [compound 26] | 1.1 | – | – | –
23 | 7 (FWMLLQEGFAFWFP) [compound 7] | 1.3 | – | – | –
24 | 88 (VAADDLAFWCDVMY) [compound 88] | – | 0.0 | 1.2 | –
25 | 83 (VPSADLETWCHVMY) [compound 83] | – | 0.0 | 1.4 | –
26 | 40 (AASDDLEFWCHVMY) [compound 40] | – | 0.0 | 1.4 | FZD7 CRD-Fc phage-binding signal (FZD7 CRD-Fc): 3.2; FZD7 CRD-Fc S/N (FZD7 CRD-Fc): 60.5
27 | 2 (TYFDDICNLILPWANP) [compound 2] | 1.2 | – | – | –
28 | 68 (VPSDDLASWCHVMY) [compound 68] | – | 0.0 | 1.4 | –
29 | 79 (LPSADLESWCHVMY) [compound 79] | – | 0.0 | 1.4 | –
30 | 71 (APSDDLASWCHVMY) [compound 71] | – | 0.0 | 1.1 | –
31 | 42 (APSDDVAFWCHVMY) [compound 42] | – | 0.0 | 1.6 | –
32 | Cc1cc(-c2ccc(CC(=O)Nc3ccc(-c4cccnc4)cc3)cc2)ccn1 [C59] | – | – | – | adverse effects on adjacent intestinal crypts [3]: no significant adverse effects; growth of intestinal neoplasia [3]: prevents the growth
33 | 61 (APADDLASWCHVMY) [compound 61] | – | 0.0 | 1.3 | –
34 | 10 (ASELHDWCRMMFPW) [compound 10] | 1.2 | – | – | –
35 | SDDXEFWCHVMY [dFz7-21Δ2.L6Hof] | – | – | – | IC50 compared with dFz7-21 [1]: comparable to that of dFz7-21
36 | 51 (APADDLAFWCHVMY) [compound 51] | – | 0.0 | 1.3 | –
37 | 89 (APADDLEFWCHAMY) [compound 89] | – | 0.0 | 1.4 | –
38 | 17 (GDFWPGSLLWEILV) [compound 17] | 1.2 | – | – | –
39 | 93 (AAADDLAFWCDVMY) [compound 93] | – | -0.2 | 0.4 | –
